Laboratory results reported in PMC7305224, “Mutually stabilizing interactions between proto-peptides and RNA” (Nature Communications, 2020).
Non-standard residues stand in square brackets, D forms with d. Residues, ends and D or L forms follow the SMILES beside them. *: point of attachment. 5FAM = O=C1OC2(c3ccc(O)cc3Oc3cc(O)ccc32)c2ccc(C(=O)*)cc21; Dab = NCC[C@H](N)C(=O)O

Legend:
[1] = test system: RNA duplex 1 (5′-rCrGrCrUrArArArUrCrG-3′ & 5′-rCrGrArUrUrUrArGrCrG-3′); assay: RNA thermal denaturation (Tm) by UV hyperchromicity at 260 nm with synthetic peptides/depsipeptides, RNA duplex 1; assay type: binding
[2] = test system: 5′-Cy5-U20 RNA; assay: Gel mobility (band) shift assay; assay type: binding; details: 66.6–530 µM FAM-labeled sequence, 5′-Cy5-U20 RNA 26.6 µM, MES-TEA buffer pH 6, 12% native polyacrylamide gel
Method: The gel was cropped at the edges for clarity. […] Spectra were recorded in 100 mM MES-TEA buffer (pH 6). d Plot of the change in CD signal at 266 nm as a function of increasing concentrations of depsipeptide 14. Red and blue colors of the filled circles correspond to curves of the same color in panel (c). […] […] An addition of 1.25 µL of glycerol brought the sample volume to a total of 3.75 µL. Samples were loaded onto a 12% native polyacrylamide gel, run at 100 V for 90 min, and imaged using Azure Biosystems c430.

`C[C@H](NC(=O)CNC(=O)c1ccc2c(c1)C(=O)OC21c2ccc(O)cc2Oc2cc(O)ccc21)C(=O)N[C@@H](CCN)C(=O)N[C@@H](CCCCN)C(=O)N[C@@H](C)C(=O)N[C@@H](CCN)C(=O)N[C@@H](CCCCN)C(=O)N[C@@H](C)C(=O)N[C@@H](CCN)C(=O)N[C@@H](CCCCN)C(=O)N[C@@H](C)C(=O)N[C@@H](CCN)C(=O)N[C@@H](CCCCN)C(=O)N[C@@H](C)C(=O)N[C@@H](CCN)C(=O)N[C@@H](CCCCN)C(N)=O` [compound 12, 5-FAM-Gly-Ala-Dab-Lys-Ala-Dab-Lys-Ala-Dab-Lys-Ala-Dab-Lys-Ala-Dab-Lys NH2] (5FAM-GA[Dab]KA[Dab]KA[Dab]KA[Dab]KA[Dab]K-NH2) was tested, and the “RNA duplex 1 Tm” value ([1]; observed Tm, peptide/depsipeptide 80 mM (so in the source), pH 7.0, mean ± SD) was 54.4 ± 0.6 °C, the “RNA duplex 1 ΔTm” value ([1]; peptide/depsipeptide 80 μM, pH 7.0, 10 mM phosphate, 100 mM NaCl) was 10.6 °C and the “band shift of RNA in gel mobility shift assay” value [2] was “concentration-dependent band shift”.
